# Patent publication US20070128217A1 (priority 2003, published 2007)
# What was measured:
# [1] = test system: antibodies in sera from SARS patients (sera 1a, 1b, 2, 6, 37, 62, London, SARS-yellow, SARS-green); assay type: binding, human; parameters: Binding of serum 6 to linear peptides of protein X1 of SARS-CoV Urbani / Binding of serum 37 to linear peptides of protein X1 of SARS-CoV Urbani / Binding of serum 6 to looped/cyclic peptide (PEPSCAN-ELISA) / Binding of serum 37 to looped/cyclic peptide (PEPSCAN-ELISA) / Binding of serum 37 to looped/cyclic peptides of protein X1 of SARS-CoV Urbani / Binding of serum 6 to linear peptides of protein X2 / Binding of serum 37 to linear peptides of protein X2 / Binding of serum 37 to looped/cyclic peptides of protein X2 of SARS-CoV Urbani / Binding of serum 6 to linear peptides of protein M of SARS-CoV Urbani / Binding of serum 37 to linear peptides of protein M of SARS-CoV Urbani / Binding of serum 6 to looped/cyclic peptides of protein M of SARS-CoV Urbani / Binding of serum 37 to looped/cyclic peptides of protein M of SARS-CoV Urbani / Binding of serum 6 to linear peptides of protein X3 of SARS-CoV Urbani / Binding of serum 37 to linear peptides of protein X3 of SARS-CoV Urbani / Binding of serum 37 to looped/cyclic peptides of protein X3 of SARS-CoV Urbani / Binding of serum 6 to linear peptides of protein X4 of SARS-CoV Urbani / Binding of serum 37 to linear peptides of protein X4 of SARS-CoV Urbani / Binding of serum 37 to looped/cyclic peptides of protein X4 of SARS-CoV Urbani / Binding of serum 6 to linear peptides of protein X5 of SARS-CoV Urbani / Binding of serum 37 to linear peptides of protein X5 of SARS-CoV Urbani / Binding of serum 37 to looped/cyclic peptides of protein X5 of SARS-CoV Urbani / Binding of serum 6 to linear peptides of protein N of SARS-CoV Urbani / Binding of serum 37 to linear peptides of protein N of SARS-CoV Urbani / Binding of serum 6 to linear peptide (PEPSCAN-ELISA) / Binding of serum 1a to looped/cyclic peptides of protein N of SARS-CoV Urbani / Binding of serum 1b to looped/cyclic peptides of protein N of SARS-CoV Urbani / Binding of serum 2 to looped/cyclic peptides of protein N of SARS-CoV Urbani / Binding of serum 6 to looped/cyclic peptides of protein N of SARS-CoV Urbani / Binding of serum 37 to looped/cyclic peptides of protein N of SARS-CoV Urbani / Binding of serum 62 to looped/cyclic peptides of protein N of SARS-CoV Urbani / Binding of serum London to looped/cyclic peptides of protein N of SARS-CoV Urbani / Binding of serum SARS-green to looped/cyclic peptides of protein N of SARS-CoV Urbani: unit not given here
# [2] = test system: control sera (pooled serum of ten healthy LUMC hospital workers; commercial negative donor pooled serum from the Dutch bloodbank); assay type: binding, human; parameters: Binding of Control serum LUMC to linear peptides / Binding of Control serum Blood-bank to linear peptides / Binding of Control serum LUMC to looped peptides / Binding of Control Serum Blood-Bank to Looped peptides / Binding of Control serum LUMC to linear peptides of the protein M of SARS-CoV Urbani / Binding of Control serum Blood-bank to linear peptides of the protein M of SARS-CoV Urbani / Binding of Control serum LUMC to looped peptides of the protein M of SARS-CoV Urbani / Binding of Control Serum Blood-Bank to Looped peptides of the protein M of SARS-CoV Urbani: unit not given here
# [3] = test system: rabbit serum obtained by immunizing a rabbit with the SARS-CoV strain Frankfurt 1; assay type: binding; parameters: Binding of a rabbit serum to linear peptides / Binding of a rabbit serum to looped peptides / Rabbit serum linear peptides / Rabbit serum looped peptides / Binding of a rabbit serum to linear peptides of protein N of SARS-CoV Urbani (Rabbit serum linear peptides) / Binding of a rabbit serum to looped/cyclic peptides of protein N of SARS-CoV Urbani (Rabbit serum looped peptides): unit not given here
sequence,measurement,setting,value
FAYSNRNRFLYIIKL,Binding of serum 1a to linear peptides of protein M of SARS-CoV Urbani,[1],0.6
same,Binding of serum 1b to linear peptides of protein M of SARS-CoV Urbani,[1],0.4
same,Binding of serum 2 to linear peptides of protein M of SARS-CoV Urbani,[1],0.7
same,Binding of serum 6 to linear peptides of protein M of SARS-CoV Urbani,[1],0.3
same,Binding of serum 37 to linear peptides of protein M of SARS-CoV Urbani,[1],0.7
same,Binding of serum 62 to linear peptides of protein M of SARS-CoV Urbani,[1],0.7
same,Binding of serum London to linear peptides of protein M of SARS-CoV Urbani,[1],0.3
same,Binding of serum SARS-green to linear peptides of protein M of SARS-CoV Urbani,[1],0.2
same,Binding of serum SARS-yellow to linear peptides of protein M of SARS-CoV Urbani,[1],0.1
same,"Recognition of the peptide by sera of SARS-CoV infected individuals, and form (linear, looped/cyclic) in which it is recognized",[1],recognized in looped/cyclic form
same,Binding of Control Serum Blood-Bank to Looped peptides of the protein M of SARS-CoV Urbani,[2],0.4
same,Binding of Control serum Blood-bank to linear peptides of the protein M of SARS-CoV Urbani,[2],0.6
same,Binding of Control serum LUMC to linear peptides of the protein M of SARS-CoV Urbani,[2],0.4
same,Binding of Control serum LUMC to looped peptides of the protein M of SARS-CoV Urbani,[2],0.6
same,Rabbit serum linear peptides,[3],0.7
same,Rabbit serum looped peptides,[3],0.6
SNRNRFLYIIKLVFL,Binding of serum 1a to linear peptides of protein M of SARS-CoV Urbani,[1],0.6
same,Binding of serum 1b to linear peptides of protein M of SARS-CoV Urbani,[1],0.5
same,Binding of serum 2 to linear peptides of protein M of SARS-CoV Urbani,[1],0.4
same,Binding of serum 6 to linear peptides of protein M of SARS-CoV Urbani,[1],0.5
same,Binding of serum 37 to linear peptides of protein M of SARS-CoV Urbani,[1],0.4
same,Binding of serum 62 to linear peptides of protein M of SARS-CoV Urbani,[1],0.4
same,Binding of serum London to linear peptides of protein M of SARS-CoV Urbani,[1],0.3
same,Binding of serum SARS-green to linear peptides of protein M of SARS-CoV Urbani,[1],0.4
same,Binding of serum SARS-yellow to linear peptides of protein M of SARS-CoV Urbani,[1],0.3
same,"Recognition of the peptide by sera of SARS-CoV infected individuals, and form (linear, looped/cyclic) in which it is recognized",[1],recognized in looped/cyclic form
same,Binding of Control Serum Blood-Bank to Looped peptides of the protein M of SARS-CoV Urbani,[2],0.7
same,Binding of Control serum Blood-bank to linear peptides of the protein M of SARS-CoV Urbani,[2],0.7
same,Binding of Control serum LUMC to linear peptides of the protein M of SARS-CoV Urbani,[2],0.7
same,Binding of Control serum LUMC to looped peptides of the protein M of SARS-CoV Urbani,[2],0.9
same,Rabbit serum linear peptides,[3],0.5
same,Rabbit serum looped peptides,[3],0.6
ALIYFLQCINACRII,Binding of serum 1a to linear peptides of protein X1 of SARS-CoV Urbani,[1],0.6
same,Binding of serum 1a to looped/cyclic peptide (PEPSCAN-ELISA),[1],0.3
same,Binding of serum 1b to linear peptides of protein X1 of SARS-CoV Urbani,[1],0.6
same,Binding of serum 1b to looped/cyclic peptide (PEPSCAN-ELISA),[1],0.2
same,Binding of serum 2 to linear peptides of protein X1 of SARS-CoV Urbani,[1],0.5
same,Binding of serum 2 to looped/cyclic peptide (PEPSCAN-ELISA),[1],0.4
same,Binding of serum 6 to linear peptides of protein X1 of SARS-CoV Urbani,[1],0.4
same,Binding of serum 6 to looped/cyclic peptide (PEPSCAN-ELISA),[1],0.9
same,Binding of serum 37 to linear peptides of protein X1 of SARS-CoV Urbani,[1],0.7
same,Binding of serum 37 to looped/cyclic peptide (PEPSCAN-ELISA),[1],0.3
same,Binding of serum 62 to linear peptides of protein X1 of SARS-CoV Urbani,[1],0.6
same,Binding of serum 62 to looped/cyclic peptide (PEPSCAN-ELISA),[1],0.3
same,Binding of serum London to linear peptides of protein X1 of SARS-CoV Urbani,[1],0.3
same,Binding of serum London to looped/cyclic peptide (PEPSCAN-ELISA),[1],1.3
same,Binding of serum SARS-green to linear peptides of protein X1 of SARS-CoV Urbani,[1],0.1
same,Binding of serum SARS-green to looped/cyclic peptide (PEPSCAN-ELISA),[1],0.3
same,Binding of serum SARS-yellow to linear peptides of protein X1 of SARS-CoV Urbani,[1],0.4
same,Binding of serum SARS-yellow to looped/cyclic peptide (PEPSCAN-ELISA),[1],0.1
same,Binding of Control Serum Blood-Bank to Looped peptides,[2],0.5
same,Binding of Control serum Blood-bank to linear peptides,[2],0.5
same,Binding of Control serum LUMC to linear peptides,[2],0.5
same,Binding of Control serum LUMC to looped peptides,[2],0.3
same,Binding of a rabbit serum to linear peptides,[3],0.7
same,Binding of a rabbit serum to looped peptides,[3],0.6
